Reference: patent publication US20230049952A1, “METHODS AND COMPOUNDS FOR RESTORING MUTANT P53 FUNCTION” (PMV Pharmaceuticals, Inc., priority 2020, published 2023)

Tested on: NF-κB signaling pathway in MT373 tumors
Experiment: MT373 syngeneic sarcoma model: mouse NF-κB signaling pathway profiling panel
Type: in vivo

## CCn1c(C#CCNc2ccccc2)cc2cc(CNC3CCN(C)CC3)ccc21 [Compound 1, 1-Anilino-3-{1-ethyl-5-[(1-methyl-4-piperidylamino)methyl]-1H-indol-2-yl}-2-propyne]
150 mg/kg BIDx1, 48 h
  Bcl2a1a fold increase over or percent reduction vs vehicle control: 67.64 ± 10.73 fold or %
  Bcl2l1 fold increase over or percent reduction vs vehicle control: 7.49 ± 1.18 fold or %
  Bcl3 fold increase over or percent reduction vs vehicle control: 1.35 ± 0.16 fold or %
  Bcl10 fold increase over or percent reduction vs vehicle control: 36.06 ± 3.54 fold or %
  Birc3 fold increase over or percent reduction vs vehicle control: 1.20 ± 0.28 fold or %
  Card10 fold increase over or percent reduction vs vehicle control: 1.20 ± 0.11 fold or %
  Card11 fold increase over or percent reduction vs vehicle control: 1.67 ± 0.42 fold or %
  Casp1 fold increase over or percent reduction vs vehicle control: 10.29 ± 10.66 fold or %
  Casp8 fold increase over or percent reduction vs vehicle control: 1.02 ± 0.01 fold or %
  Ccl2 fold increase over or percent reduction vs vehicle control: 67.28 ± 5.26 fold or %
  Ccl5 fold increase over or percent reduction vs vehicle control: 8.18 ± 19.38 fold or %
  Cd27 fold increase over or percent reduction vs vehicle control: 1.46 ± 0.26 fold or %
  Cd40 fold increase over or percent reduction vs vehicle control: 39.20 ± 14.39 fold or %
  Cflar fold increase over or percent reduction vs vehicle control: 7.92 ± 8.21 fold or %
  Chuk fold increase over or percent reduction vs vehicle control: 4.04 ± 12.31 fold or %
  Crebbp fold increase over or percent reduction vs vehicle control: 1.12 ± 0.05 fold or %
  Csf1 fold increase over or percent reduction vs vehicle control: 11.36 ± 7.30 fold or %
  Csf2 fold increase over or percent reduction vs vehicle control: 62.24 ± 8.70 fold or %
  Csf3 fold increase over or percent reduction vs vehicle control: 0.37 ± 11.46 fold or %
  Egfr fold increase over or percent reduction vs vehicle control: 24.42 ± 4.76 fold or %
  Egr1 fold increase over or percent reduction vs vehicle control: 42.64 ± 12.12 fold or %
  Eif2ak2 fold increase over or percent reduction vs vehicle control: 1.01 ± 0.03 fold or %
  Elk1 fold increase over or percent reduction vs vehicle control: 11.87 ± 8.21 fold or %
  F2r fold increase over or percent reduction vs vehicle control: 19.79 ± 4.23 fold or %
  Fadd fold increase over or percent reduction vs vehicle control: 7.23 ± 4.56 fold or %
  Fasl fold increase over or percent reduction vs vehicle control: 5.96 ± 19.38 fold or %
  Fos fold increase over or percent reduction vs vehicle control: 47.30 ± 7.08 fold or %
  Hmox1 fold increase over or percent reduction vs vehicle control: 27.03 ± 7.50 fold or %
  Icam1 fold increase over or percent reduction vs vehicle control: 3.83 ± 17.26 fold or %
  Ifng fold increase over or percent reduction vs vehicle control: 43.46 ± 15.02 fold or %
  Ikbkb fold increase over or percent reduction vs vehicle control: 1.24 ± 0.09 fold or %
  Ikbke fold increase over or percent reduction vs vehicle control: 1.71 ± 28.42 fold or %
  Ikbkg fold increase over or percent reduction vs vehicle control: 3.73 ± 5.88 fold or %
  Il1a fold increase over or percent reduction vs vehicle control: 28.88 ± 7.08 fold or %
  Il1b fold increase over or percent reduction vs vehicle control: 18.73 ± 5.15 fold or %
  Il1r1 fold increase over or percent reduction vs vehicle control: 22.37 ± 5.01 fold or %
  Il10 fold increase over or percent reduction vs vehicle control: 1.15 ± 0.09 fold or %
  Irak1 fold increase over or percent reduction vs vehicle control: 1.00 ± 2.36 fold or %
  Irak2 fold increase over or percent reduction vs vehicle control: 17.08 ± 1.54 fold or %
  Irf1 fold increase over or percent reduction vs vehicle control: 7.15 ± 7.58 fold or %
  Jun fold increase over or percent reduction vs vehicle control: 44.92 ± 3.26 fold or %
  Lta fold increase over or percent reduction vs vehicle control: 57.16 ± 12.86 fold or %
  Ltbr fold increase over or percent reduction vs vehicle control: 13.21 ± 2.85 fold or %
  Map3k1 fold increase over or percent reduction vs vehicle control: 1.74 ± 0.24 fold or %
  Mapk3 fold increase over or percent reduction vs vehicle control: 3.13 ± 7.94 fold or %
  Myd88 fold increase over or percent reduction vs vehicle control: 1.17 ± 0.06 fold or %
  Nfkb1 fold increase over or percent reduction vs vehicle control: 1.04 ± 0.04 fold or %
  Nfkb2 fold increase over or percent reduction vs vehicle control: 1.17 ± 0.11 fold or %
  Nfkbia fold increase over or percent reduction vs vehicle control: 1.14 ± 0.15 fold or %
  Nod1 fold increase over or percent reduction vs vehicle control: 1.49 ± 0.08 fold or %
  Raf1 fold increase over or percent reduction vs vehicle control: 0.48 ± 5.31 fold or %
  Rel fold increase over or percent reduction vs vehicle control: 1.30 ± 0.16 fold or %
  Rela fold increase over or percent reduction vs vehicle control: 1.07 ± 0.01 fold or %
  Relb fold increase over or percent reduction vs vehicle control: 1.09 ± 0.07 fold or %
  Ripk1 fold increase over or percent reduction vs vehicle control: 1.19 ± 0.07 fold or %
  Ripk2 fold increase over or percent reduction vs vehicle control: 24.29 ± 6.23 fold or %
  Slc20a1 fold increase over or percent reduction vs vehicle control: 40.28 ± 6.82 fold or %
  Smad3 fold increase over or percent reduction vs vehicle control: 1.04 ± 0.08 fold or %
  Stat1 fold increase over or percent reduction vs vehicle control: 1.36 ± 0.15 fold or %
  Tbk1 fold increase over or percent reduction vs vehicle control: 1.01 ± 6.05 fold or %
  Tlr1 fold increase over or percent reduction vs vehicle control: 1.63 ± 0.28 fold or %
  Tlr2 fold increase over or percent reduction vs vehicle control: 1.24 ± 0.15 fold or %
  Tlr3 fold increase over or percent reduction vs vehicle control: 1.00 ± 1.44 fold or %
  Tlr4 fold increase over or percent reduction vs vehicle control: 6.31 ± 9.66 fold or %
  Tlr6 fold increase over or percent reduction vs vehicle control: 1.33 ± 0.08 fold or %
  Tlr9 fold increase over or percent reduction vs vehicle control: 1.92 ± 0.29 fold or %
  Tnf fold increase over or percent reduction vs vehicle control: 56.86 ± 13.49 fold or %
  Tnfaip3 fold increase over or percent reduction vs vehicle control: 1.26 ± 0.33 fold or %
  Tnfrsf1a fold increase over or percent reduction vs vehicle control: 1.35 ± 0.08 fold or %
  Tnfrsf1b fold increase over or percent reduction vs vehicle control: 1.66 ± 0.08 fold or %
  Tnfrsf10b fold increase over or percent reduction vs vehicle control: 11.34 ± 5.36 fold or %
  Tnfsf10 fold increase over or percent reduction vs vehicle control: 16.58 ± 3.82 fold or %
  Tnfsf14 fold increase over or percent reduction vs vehicle control: 1.53 ± 0.40 fold or %
  Tollip fold increase over or percent reduction vs vehicle control: 2.45 ± 1.53 fold or %
  Tradd fold increase over or percent reduction vs vehicle control: 1.01 ± 0.06 fold or %
  Traf2 fold increase over or percent reduction vs vehicle control: 7.23 ± 7.66 fold or %
  Traf3 fold increase over or percent reduction vs vehicle control: 13.20 ± 10.35 fold or %
  Traf5 fold increase over or percent reduction vs vehicle control: 2.99 ± 3.31 fold or %
  Traf6 fold increase over or percent reduction vs vehicle control: 1.07 ± 0.12 fold or %
  Zap70 fold increase over or percent reduction vs vehicle control: 1.45 ± 0.41 fold or %
150 mg/kg BIDx1, 72 h
  Agt fold increase over or percent reduction vs vehicle control: 2.05 ± 0.66 fold or %
  Akt1 fold increase over or percent reduction vs vehicle control: 1.06 ± 0.07 fold or %
  Atf1 fold increase over or percent reduction vs vehicle control: 34.00 ± 7.86 fold or %
  Atf2 fold increase over or percent reduction vs vehicle control: 8.53 ± 13.61 fold or %
  Bcl2a1a fold increase over or percent reduction vs vehicle control: 48.45 ± 28.65 fold or %
  Bcl2l1 fold increase over or percent reduction vs vehicle control: 1.06 ± 0.18 fold or %
  Bcl3 fold increase over or percent reduction vs vehicle control: 1.22 ± 0.24 fold or %
  Bcl10 fold increase over or percent reduction vs vehicle control: 23.25 ± 7.71 fold or %
  Birc3 fold increase over or percent reduction vs vehicle control: 1.13 ± 0.28 fold or %
